In US9562053B2, “Benzo-fused heterocyclic derivatives useful as agonists of GPR120” (Janssen Pharmaceutica NV, priority 2013, dated 2017):

Tests used:
C57bl/6J Mice [1] = assay: C57bl6 mouse OGTT; type: in vivo
Method: (§1) Male, C57bl/6J Mice were ordered in at 8 weeks of age from Jackson Labs. Individual mice weighed anywhere in the range of 25-30 grams on study day. The mice were fasted, with removal of food occurring at 7 am on the morning of the study. Animals were moved into the room at 10:00 am, to give them time to acclimate. Glucose (insulin syringes) was drawn up either the night before or the morning of the study. Glucose was dosed (IP) at 1.5 g/kg at 7.5 ml/kg (20% glucose straight TEKNOVA, 250 ml sterile bottle w/catalogue number G0525). Test compounds were kept spinning and were only drawn into the syringes prior to study commencement. Animals were bled via tail snip to determine basal glucose levels prior to dosing of treatments. An Ascensia BREEZE Blood Glucose Monitoring System by Bayer (using unique 10-test disks) was used for determining glucose levels. The bleeds started at approximately 12:45 pm and dosing started, at 1-minute intervals, immediately after. All groups were dosed 30 minutes prior to glucose administration at a dose volume of 10 ml/kg (the dose volume was calculated separately for each individual animal). Thirty minutes after the first dose animals were bled again for a second baseline, or T=0, and immediately dosed with glucose via an i.p. injection. The exact dose volume for glucose was also calculated separately for each individual animal. Glucose measurements were taken at −30 min prior to compound dose, at t=0 (immediately prior to glucose dose), and at 15, 30, 45, 60, 90 min post glucose dose.
(§2) Glucose values were entered into an Excel sheet and graphed in GraphPad Prism. The following were calculated from Prism: Change from −30 to 0 BSLN Glucose, Raw Glucose AUC −30 to 90 min, Delta Glucose AUC −30 to 90 min, Raw Glucose AUC 0 to 90 min, Delta Glucose AUC 0 to 90 min.
The assay design is the same as that described above for the C57bl6 mouse IPGTT. The difference is that glucose was dosed PO at 3 g/kg, 7.5 ml/kg of 40% glucose.

C57bl/6J Mice [2] = assay: GPR120 C57bl6 Mouse IPGTT; type: in vivo
Method: as §1, §2

[3] = system: C57Bl6 mice on a high fat diet; assay: GPR120 DIO Mice OGTT Screening; type: in vivo, mouse; conditions: 10 mg/kg dosed 30 min before glucose, glucose AUC −30 to 90 min, change from vehicle, printed as %
Method: 18-22 week old, C57Bl6 mice on a high fat diet (60% HFD) for 12-16 weeks (ave. body weight ˜37-41 g) were fasted for 6 hr, with removal of food occurring at 7 am on the morning of the study. The animals were sorted into treatment groups the day before the study by body weight. Animals outside the bounds of ˜30-50 g were left out of the study. The animals had been handled and shammed a total of 5-8 days (1-3 days immediately prior to the study). Glucose (in 1 ml syringes) was drawn up the morning of the study. Test compounds were kept spinning and were only drawn into 1 ml syringes prior to study commencement. Animals were bled via tail snip to determine basal glucose levels prior to dosing of treatments. […]
Animals were moved into the testing room at ˜9-11 am, to yield them time to acclimate. […] All groups were dosed 30 minutes prior to glucose administration at a dose volume of 10 ml/kg (the dose volume was calculated separately for each individual animal). […]
Thirty minutes after the first dose (with test compound) animals were bled again for a second baseline, or T=0, and immediately dosed with glucose (20% solution; TEKNOVA, 250 ml sterile bottle w/catalogue number G0525) via a PO injection. The exact dose volume for glucose was also calculated separately for each individual animal.
Blood glucose was measured at 15, 30, 45, 60, and 90 minutes post-glucose administration via the snipped tail. […]

Structure (SMILES) | Dose Responses C57 OGTT (C57bl/6J Mice [1]; 3 mg/kg) [%] | Dose Responses C57 OGTT (C57bl/6J Mice [1]; 10 mg/kg) [%] | Dose Responses C57 OGTT (C57bl/6J Mice [1]; 30 mg/kg) [%] | Dose Responses C57 IPGTT (C57bl/6J Mice [2]; 3 mg/kg) [%] | Dose Responses C57 IPGTT (C57bl/6J Mice [2]; 10 mg/kg) [%] | other results
CCc1cc2cc(F)cc(COc3ccc(CCC(=O)O)c(C)c3C)c2o1 [Compound 3, 3-{4-[(2-Ethyl-5-fluoro-1-benzofuran-7-yl)methoxy]-2,3-dimethylphenyl}propanoic acid] | −15 | −24 | −35 | – | – | C57 OGTT result (C57bl/6J Mice [1]; 30 mg/kg, glucose PO 3 g/kg): −35
CCc1cc2cc(OC(F)(F)F)cc(COc3ccc(CCC(=O)O)c(C)c3C)c2o1 [Compound 12, 3-(4-{[2-Ethyl-5-(trifluoromethoxy)-1-benzofuran-7-yl]methoxy}-2,3-dimethylphenyl)propanoic acid] | 6 | −26 | −30 | – | – | –
Cc1cc2cc(OC(F)(F)F)cc(COc3ccc(CCC(=O)O)c(C)c3C)c2o1 [Compound 36, 3-(2,3-Dimethyl-4-{[2-methyl-5-(trifluoromethoxy)-1-benzofuran-7-yl]methoxy}phenyl)propanoic acid] | – | – | – | −7 | −36 | Dose Responses C57 IPGTT (C57bl/6J Mice [2]; 30 mg/kg): −46%
CCc1cc2cc(Cl)cc(COc3ccc(CCC(=O)O)c(C)c3C)c2o1 [Compound 11, 3-{4-[(5-Chloro-2-ethyl-1-benzofuran-7-yl)methoxy]-2,3-dimethylphenyl}propanoic acid] | −30 | −38 | −43 | – | – | –
CCc1cc2cc(Cl)c(C)c(COc3ccc(CCC(=O)O)c(C)c3C)c2o1 [Compound 40, 3-{4-[(5-Chloro-2-ethyl-6-methyl-1-benzofuran-7-yl)methoxy]-2,3-dimethylphenyl}propanoic acid] | – | – | – | 13 | −34 | Dose Responses C57 IPGTT (C57bl/6J Mice [2]; 1 mg/kg): −28%
Cc1cc2c(F)c(OC(F)(F)F)c(F)c(COc3ccc(CCC(=O)O)c(F)c3F)c2o1 [Compound 75, 3-(4-{[4,6-Difluoro-2-methyl-5-(trifluoromethoxy)-1-benzofuran-7-yl]methoxy}-2,3-difluorophenyl)propanoic acid] | – | – | – | – | – | DIO Lowering Glucose AUC (−30 to 90) @10 mg/kg [3]: −31%
Cc1cc2cc(F)cc(COc3ccc(CCC(=O)O)c(C)c3C)c2o1 [Compound 2, 3-{4-[(5-Fluoro-2-methyl-1-benzofuran-7-yl)methoxy]-2,3-dimethylphenyl}propanoic acid] | −29 | −31 | −51 | −20 | −27 | Dose Responses C57 IPGTT (C57bl/6J Mice [2]; 1 mg/kg): −3%; Dose Responses C57 IPGTT (C57bl/6J Mice [2]; 30 mg/kg): −53%
Cc1cc2cc(Cl)c(C)c(COc3ccc(CCC(=O)O)c(C)c3C)c2o1 [Compound 85, 3-{4-[(5-Chloro-2,6-dimethyl-1-benzofuran-7-yl)methoxy]-2,3-dimethylphenyl}propanoic acid] | – | – | – | – | – | DIO Lowering Glucose AUC (−30 to 90) @10 mg/kg [3]: −37%
